Experimental data: the supplement of paper PMC10307832

How the values were obtained:
Test in all cases: relative viability (nuclei count vs DMSO), 5 days (fraction); higher = more cells survive
[1] = compound: CN[C@@H]1C[C@H]2O[C@@](C)([C@@H]1OC)n1c3ccccc3c3c4c(c5c6ccccc6n2c5c31)C(=O)NC4 [Staurosporine] + Cc1nc(Nc2ncc(C(=O)Nc3c(C)cccc3Cl)s2)cc(N2CCN(CCO)CC2)n1 [Dasatinib] (partner 0.075 µM)
Summary of the method: (§1)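 For relative viability, nuclei counts in treated wells were divided by those in vehicle wells. Lung cancer cell lines had been pin-tool dosed in 1536-well plates the day after seeding and cultured for 5 days, then fixed and stained in one step (final 0.05% Triton X-100, 1% formaldehyde, 1 ug/ml Hoechst) and imaged at 4×. Doses were one drug alone or a fixed anchor-drug dose plus five library-drug doses (not always all listed) in √10 steps, and values are duplicate-plate medians.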

[2] = compound: O=c1[nH]cc(F)c(=O)[nH]1 [5-Fluorouracil] + CS(=O)(=O)CCNCc1ccc(-c2ccc3ncnc(Nc4ccc(OCc5cccc(F)c5)c(Cl)c4)c3c2)o1 [Lapatinib] (partner 2 µM)
Summary of the method: as §1

[3] = compound: CC1=C(CC(=O)O)c2cc(F)ccc2/C1=C\c1ccc([S+](C)[O-])cc1 [Sulindac] + Cc1nc(Nc2ncc(C(=O)Nc3c(C)cccc3Cl)s2)cc(N2CCN(CCO)CC2)n1 [Dasatinib] (partner 0.075 µM)
Summary of the method: as §1

[4] = compound: O=c1[nH]cc(F)c(=O)[nH]1 [5-Fluorouracil] + N=C(N)NC(=N)NCCc1ccccc1 [Phenformin] (partner 250 µM)
Summary of the method: as §1

Cell Line	relative viability ([1]; first compound 0.005 µM)	relative viability ([1]; first compound 0.01581 µM)	relative viability ([1]; first compound 0.05 µM)	relative viability ([1]; first compound 0.1581 µM)	relative viability ([1]; first compound 0.5 µM)	relative viability ([2]; first compound 0.02 µM)	relative viability ([2]; first compound 0.2 µM)	relative viability ([2]; first compound 0.6325 µM)	relative viability ([2]; first compound 2 µM)	relative viability ([3]; first compound 0.08 µM)	relative viability ([3]; first compound 0.253 µM)	relative viability ([3]; first compound 2.53 µM)	relative viability ([3]; first compound 8 µM)	relative viability ([4]; first compound 0.02 µM)	relative viability ([4]; first compound 0.2 µM)	relative viability ([4]; first compound 0.6325 µM)	relative viability ([4]; first compound 2 µM)	relative viability ([3]; first compound 0.8 µM)
NCI-H1355	0.516	0.166	0.202	0.164	0.152	0.97	0.899	0.39	0.311	0.872	0.756	0.643	0.795	0.431	0.412	0.296	0.297	
EKVX	0.666	0.282	0.201	0.202	0.161		0.184	0.15	0.147	0.414	0.524	0.479	0.476	0.18	0.179	0.13	0.134	
NCI-H520	0.278	0.251	0.215	0.176	0.171	0.952	0.856	0.459	0.333	0.241	0.201	0.204	0.226	0.525	0.677	0.46	0.442	
NCI-H1993	0.646	0.454	0.54	0.488	0.509	0.706	0.765	0.65	0.591	0.569	0.516	0.581	0.575	0.538	0.514	0.494	0.459	0.543
HCC-78	0.357	0.295	0.339	0.26	0.264	0.768	1.2	0.265		0.552	0.313	0.587	0.401	0.697	0.706	0.558	0.312	0.345
NCI-H2087	0.701	0.431	0.311	0.0727	0.0691	1.03	1.22	0.748	0.548	1.23	0.82	0.8	1.11	0.49	0.555	0.438	0.333	
H3255	0.271	0.247	0.255	0.19	0.248	0.269	0.264	0.255	0.257	0.407	0.319	0.389	0.399	0.35	0.393	0.35	0.351	0.487
NCI-H2126	0.501	0.275	0.301	0.257	0.222	0.801	0.444	0.321	0.281	0.558	0.585	0.57	0.671	0.411	0.331	0.314	0.287	0.597
LC-2-ad	0.488	0.188	0.193	0.194	0.141	1.05	0.975	0.255	0.264	0.584	0.718	0.418	0.839	0.554	0.512	0.407	0.385	0.337
SK-LU-1	0.183			0.102	0.1	0.904	0.956	0.846	0.704	0.157	0.162	0.143	0.202	0.529	0.651	0.501	0.485	0.168
EBC-1						0.189	0.187	0.178	0.249									
HCC-15	0.494		0.229	0.11	0.0769	0.967	0.898	0.533	0.314	0.674	0.614	0.573	0.656	0.563	0.532	0.332	0.27	0.544
NCI-H1563	0.43	0.434	0.411	0.247	0.433	0.769	0.942	0.975	0.74	0.414	0.451	0.418	0.497	0.713	0.611	0.641	0.646	0.476
COR-L 105	0.281		0.158	0.155	0.157	0.362	0.409	0.367	0.381	0.307	0.42	0.291	0.393	0.452	0.495	0.45	0.337	0.305
NCI-H647	0.0983	0.0707	0.0669	0.073	0.0532	1.14	1.2	1.07	0.687	0.257	0.201	0.194	0.247	0.504	0.495	0.544	0.399	0.126
LU99A	0.353	0.227	0.176	0.191	0.112	1.03	1.03	0.77	0.551	0.596	0.533	0.522	0.714	0.905	0.786	0.738	0.586	0.509
NCI-H1703						1.23	1.44	1.09	0.556									
NCI-H2170	0.91		0.648	0.106	0.117	0.282	0.317	0.273	0.27	0.631	0.586	0.508	0.741	0.393	0.42	0.341	0.293	0.659
NCI-H2342	0.297	0.243	0.26	0.234	0.27					0.276	0.339	0.303	0.319	0.619	0.72	0.559	0.635	0.287
LCLC-97TM1	0.611	0.254	0.286	0.378	0.293	0.693	0.857	0.617	0.272	0.996	0.951	0.711	0.998	0.386	0.472	0.443	0.407	0.637
NCI-H1299						1.05	0.978	0.959	0.817									
NCI-H322M	0.365	0.401	0.324	0.277	0.273	0.615	0.598	0.559	0.467	0.26	0.244	0.244	0.275	0.857	0.743	0.724	0.541	0.268

Cell Line	relative viability ([1]; first compound 0.005 µM)	relative viability ([1]; first compound 0.01581 µM)	relative viability ([1]; first compound 0.05 µM)	relative viability ([1]; first compound 0.1581 µM)	relative viability ([1]; first compound 0.5 µM)	relative viability ([2]; first compound 0.02 µM)	relative viability ([2]; first compound 0.2 µM)	relative viability ([2]; first compound 0.6325 µM)	relative viability ([2]; first compound 2 µM)	relative viability ([3]; first compound 0.08 µM)	relative viability ([3]; first compound 0.253 µM)	relative viability ([3]; first compound 2.53 µM)	relative viability ([3]; first compound 8 µM)	relative viability ([4]; first compound 0.02 µM)	relative viability ([4]; first compound 0.2 µM)	relative viability ([4]; first compound 0.6325 µM)	relative viability ([4]; first compound 2 µM)	relative viability ([3]; first compound 0.8 µM)
NCI-H1395	0.377	0.306	0.383	0.299	0.247	0.724	1.12	1.01	0.825	0.379	0.406	0.368	0.485	0.426	0.458	0.428	0.494	0.613
NCI-H2023	0.365	0.198	0.126	0.0785	0.0455	0.719	0.234	0.0995	0.113	0.91	0.726	0.567	0.617	0.448	0.181	0.102	0.0896	0.424
NCI-H1651	0.335	0.211	0.239	0.107	0.0833	1.04	0.701	0.471	0.435	0.475	0.539	0.419	0.777	0.395	0.334	0.265	0.341	
HARA	0.289		0.127	0.145	0.0757	0.922	0.892	0.657	0.568	0.248	0.25	0.327	0.26	0.426	0.559	0.455	0.27	0.277
NCI-H1944	0.212	0.271	0.203	0.172	0.134	0.843	0.908	0.474	0.268	0.207	0.202	0.2	0.269	0.195	0.208	0.157	0.135	0.18
NCI-H2405	0.111	0.11	0.114	0.0659	0.0751	1.06	1.22	1.06	0.63	0.22	0.234	0.218	0.228	0.394	0.409	0.34	0.369	0.331
201T	0.55		0.544	0.402	0.279	1.05	0.964	0.479	0.376	0.662	0.585	0.559	0.587	0.423	0.378	0.288	0.297	0.526
RERF-LC-KJ	0.416	0.364	0.223	0.192	0.201	0.903	0.824	0.846	0.704	1.03	0.973	0.802	0.838	0.465	0.452	0.466	0.386	0.692
Calu-6						1.04	1.01	0.908	0.537									
NCI-H1734	0.309		0.136	0.1	0.116	1.11	1.14	0.808	0.392	0.514	0.428	0.445	0.5	0.374	0.436	0.379	0.313	
NCI-H1650	0.24	0.225	0.166	0.127	0.119	0.707	0.758	0.563	0.445	0.304	0.353	0.321	0.341	0.396	0.444	0.273	0.279	
PC-14	0.0423	0.0358	0.0229	0.0364	0.0239	0.305	0.433	0.327	0.292	0.25	0.293	0.222	0.369	0.572	0.682	0.558	0.585	
ChaGo-K-1	0.621	0.491	0.475	0.147	0.128					0.597	0.618	0.587	0.651	0.526	0.476	0.433	0.348	0.64
NCI-H1623	0.635	0.425	0.651	0.553	0.41					0.552	0.444	0.501	0.519	0.45	0.582	0.364	0.335	0.525
HCC-44						1.05	0.974	0.609	0.311						0.262	0.154	0.182	
NCI-H522	1.08		0.743	0.497	0.527					0.841	0.962	0.917	0.908	0.584	0.637	0.682	0.678	0.891
NCI-H441	0.705	0.326	0.572	0.163	0.082					0.592	0.643	0.647	0.83	0.927	0.979	0.553	0.387	0.406
SW 900	0.473	0.185	0.21	0.191	0.158						0.582	0.524	0.623	0.505	0.618	0.498	0.465	
IA-LM						0.812	0.461	0.293	0.352									
A549						1.09	0.656	0.456	0.135					0.172	0.258	0.153	0.0868	
LCLC-103H	0.307	0.108	0.113	0.134	0.103					0.5	0.477	0.458	0.508	0.339	0.327	0.258	0.249	0.376
